Assay results taken from PMC2931804 (Clinical cancer research : an official journal of the …, 2010).
“And” between values parts separate entries of the source, which are not always exact repeats. Equal entries are not always repeated.

Tests used:
[1] = Vorinostat serum pharmacokinetics; assay type: in vivo, human
thymidylate synthase = settings: in vitro and in vivo models, quantitative-PCR analysis; cited from earlier work
[2] = system: dihydropyrimidine dehydrogenase (DPD); experiment: DPD activity assay in peripheral blood mononuclear cells; assay type: in vivo, human
[3] = 600 mg orally twice daily, individual patients, cycle 2
[4] = 1,700 mg orally once daily, individual patients, cycle 2

## O=C(CCCCCCC(=O)Nc1ccccc1)NO [vorinostat, suberoylanilide hydroxamic acid]
[1]; [3]
  AUC0–8: 7.8 µM·h
  Cmax: 4.99 µM
  Tmax: 2 h and 4 h
[1]; 600 mg orally twice daily, mean of 3 patients (SD 1.51)
  Cmax: 3.46 µM
[1]; [4]
  AUC0–8: 35.1 µM·h and 2.6 µM·h and 26 µM·h
  Cmax: 6.4 µM
  Tmax: 1 h
[1]; 1,700 mg orally once daily, mean of 3 patients (SD 3.09)
  Cmax: 4.49 µM
[1]; human, oral, half-life, general statement in discussion
  half-life: ~2 h
Thymidylate synthase
  Downregulation of thymidylate synthase expression: ≤ 100 fold
[2]; once-daily MTD arm, four patients, day 2 of cycle 1, baseline 0.189
  Mean DPD level: 0.142 nmol/min/mg protein
[2]; once-daily MTD arm, four patients, day 3 of cycle 1, baseline 0.189
  Mean DPD level: 0.138 nmol/min/mg protein
[2]; once-daily MTD arm, four patients, day 7 of cycle 1, baseline 0.189
  Mean DPD level: 0.126 nmol/min/mg protein
[2]; twice-daily MTD arm, three patients, day 2 of cycle 1, baseline 0.253
  Mean DPD level: 0.199 nmol/min/mg protein
[2]; twice-daily MTD arm, three patients, day 3 of cycle 1, baseline 0.253
  Mean DPD level: 0.138 nmol/min/mg protein
[2]; twice-daily MTD arm, three patients, day 7 of cycle 1, baseline 0.253
  Mean DPD level: 0.198 nmol/min/mg protein
[2]; within once-daily or twice-daily cohorts, one way ANOVA (P > 0.05)
  Differences in DPD levels over time: not statistically significant
